Assay results taken from article PMC3602187, “From Design to Screening: A New Antimicrobial Peptide Discovery Pipeline” (PLoS ONE, 2013).

tested on: Listeria innocua 33090; test: colony overlay assay of peptide-secreting E. coli clones (library screening and re-test); assay type: cell-based; set-up: key: higher activity group (H); equal activity group (E); lower activity group (L); conditions: library screening; selected colonies pooled by zone size; peptides identified by 454 sequencing, full-length sequences with minimum 20 reads
Method: For the in vivo production of AMPs, we have employed an E. coli expression system that relies on periplasmic-expression of recombinant peptides in a host cell that lacks the lpo membrane protein, thus releasing the peptides present in the periplasmic space outside the cells. When the producer cells are grown into colonies on a solid substrate, it leads to accumulation of the recombinant peptides around the colony and allows for easy library screening. The screening assay used in this study was a modified version of the standard agar diffusion method as previously described. Library-transformed E. coli colonies are overlaid with a tester strain and incubated overnight to allow for peptide expression and tester strain growth. Next day, the plates are inspected for the formation of clear growth inhibition zones around E. coli colonies, which is an indication of active AMP production by the host colony.
For the construction of Pln-423 mutant library in E. coli, the expression system that consists of a periplasmic-leaky E. coli strain JE5505 and the expression plasmid pFLAG-CTS was employed for direct screening of peptide activities. It should be noted here that this plasmid contains ompA secretion signal sequence and cleavage of this sequence results in a serine residue at the N-terminal of all mature peptides. A total of 1.0×10^5 colonies, approximately 8-fold coverage of the library, were screened against Listeria innocua 33090 in five separate screening experiments. L. innocua was previously deemed as a suitable indicator for pathogenic L. monocytogenes displaying similar bacteriocin sensitivity, therefore it was used as a surrogate strain throughout this study. The selection process involved two criteria; 1) the size of the each inhibition zone was compared to that of wild-type Pln-423 as a correlation to anti-listerial activity level, 2) when several colonies formed inhibition zones that are very similar in size and character, only a few from each group were selected. The colonies were pooled into three groups based on their activities, giving 43 clones in a higher activity group (H), 81 clones in an equal activity group (E), and 241 clones in a lower activity group (L). Their plasmids were extracted from each activity group and analyzed by both Sanger and 454 high-throughput sequencing to identify peptide sequences.
These clones were also re-tested by colony overlay assay to compare their activities to wild-type Pln-423 based on the size of the inhibition zone around each clone (Figure 2-A). Based on this assay, all ten plantaricin mutants formed larger inhibition zones (10.3±0.5 to 11.4±0.3 mm zone diameter) compared to wild-type Pln-423 (6.2±0.2 mm) against L. innocua 33090. Out of those ten, three clones have a single mutation and […] clones have two mutations and the remaining single clone has three mutations. […] Positions like Ser23, Ser27, His28, and Lys36 were commonly mutated with similar amino acids indicating their potential role on higher peptide activity.
The screening method used in this study was a modified version of the standard colony overlay method as previously described. All the chemicals and growth media supplements were obtained from either Sigma-Aldrich or Fisher Scientific unless otherwise stated. Transformed E. coli JE5505 cells were diluted to 3000–5000 cfu (determined empirically prior to screening by plating serial dilutions of E. coli suspensions of a known absorbance and counting the colonies after incubation) in 25 ml LB soft agar (0.8%, 45°C) per screening plate and poured into 150 mm petri dishes. Once the media was solidified, they were overlaid with 10 ml LB soft agar (45°C) and incubated at 37°C for 24 h for host-colony formation. Next day, these plates were re-overlaid with 10 ml TSB soft agar containing 1 mM IPTG and the indicator strain Listeria innocua ATCC 33090 (diluted to OD600 = 0.03). […]

Substance | activity group by size of inhibition zone compared to wild-type Pln-423
KYYGNGVTCGKHSCSVNWGQAFSCSVSHLANFGHNWC* [Pep-2_12339] | E
KYYGNGVTCGKHSCSVNWGQAFSCSVSHLANFGHRAC* [Pep-2_11153] | L
KYYGNGVTCGKHSCSVNWGQAFSCSVSHLANFGIGLC* [GROUP L-UM-3] | L
KYYGNGVTCGKHSCSVNWGQAFSCSVSHLANFGKGKC* [GROUP L-UM-11] | L
KYYGNGVTCGKHSCSVNWGQAFSCSVSHLANFGMGEC* [Pep-2_10826] | H
KYYGNGVTCGKHSCSVNWGQAFSCSVSHLANFGMGYC* [Pep-2_10827] | H
KYYGNGVTCGKHSCSVNWGQAFSCSVSHLANFGRGKC* [Pep-1_97] | L
KYYGNGVTCGKHSCSVNWGQAFSCSVSHLANFGSGKC* [Pep-1_99] | E
KYYGNGVTCGKHSCSVNWGQAFSCSVSHLANFGWGKC* [Pep-1_102] | L
KYYGNGVTCGKHSCSVNWGQAFSCSVSHLANFSHGKC* [GROUP L-UM-18] | L
KYYGNGVTCGKHSCSVNWGQAFSCSVSHLANGGHGKC* [Pep-1_89] | L
KYYGNGVTCGKHSCSVNWGQAFSCSVSHLANIGHGEC* [Pep-2_11890] | L
KYYGNGVTCGKHSCSVNWGQAFSCSVSHLANMGHGKC* [Pep-1_88] | H
KYYGNGVTCGKHSCSVNWGQAFSCSVSHLAWFGHGHC* [Pep-2_9097] | L
KYYGNGVTCGKHSCSVNWGQAFSCSVSHLAWFGHGKC* [Pep-1_84] | L
KYYGNGVTCGKHSCSVNWGQAFSCSVSHMANFGHGKC* [Pep-1_70] | L
KYYGNGVTCGKHSCSVNWGQAFSCSVSHWANFGHGKC* [GROUP L-UM-32] | L
KYYGNGVTCGKHSCSVNWGQAFSCSVSILANFGHGKC* [GROUP L-UM-6] | L
KYYGNGVTCGKHSCSVNWGQAFSCSVSKLAHFGHGKC* [Pep-2_8515] | L
KYYGNGVTCGKHSCSVNWGQAFSCSVSKMANFGHGKC* [Pep-2_7543] | L
KYYGNGVTCGKHSCSVNWGQAFSCSVSNLANFGHGCC* [Pep-2_6834] | L

Substance | activity group by size of inhibition zone compared to wild-type Pln-423
KYYGNGVTCGKHSCSVNWGQAFSCSVSNLANFGHGKC* [Pep-1_63] | E
KYYGNGVTCGKHSCSVNWGQAFSCSVSNLANFGHGRC* [Pep-2_6829] | L
KYYGNGVTCGKHSCSVNWGQAFSCSVSNLANFGRGKC* [Pep-2_6817] | L
KYYGNGVTCGKHSCSVNWGQAFSCSVSRLAAFGHGKC* [Pep-2_6587] | L
KYYGNGVTCGKHSCSVNWGQAFSCSVSRLANFGEGKC* [Pep-2_6602] | H
KYYGNGVTCGKHSCSVNWGQAFSCSVSRLANFGHGKC* [Pep-1_61] | E and H
KYYGNGVTCGKHSCSVNWGQAFSCSVSRVANFGHGKC* [Pep-2_6574] | L
KYYGNGVTCGKHSCSVNWGQAFSCSVSSLANFGHGKC* [GROUP E-UM-3] | E
KYYGNGVTCGKHSCSVNWGQAFSCSVSSLANFGHGLC* [Pep-2_12081] | E
KYYGNGVTCGKHSCSVNWGQAFSCSVSVLANFGHGKC* [Pep-1_64] | E
KYYGNGVTCGKHSCSVNWGQAFSCSVSVLANFGHGNC* [Pep-2_6939] | L
KYYGNGVTCGKHSCSVNWGQAFSCSVSVLANFGHNKC* [Pep-2_6933] | L
KYYGNGVTCGKHSCSVNWGQAFSCSVSVLANFGNGKC* [Pep-2_6927] | H
KYYGNGVTCGKHSCSVNWGQAFSCSVSWLANFGHGKC* [GROUP L-UM-12] | L
KYYGNGVTCGKHSCSVNWGQAFSCSVSWLANFGSGKC* [Pep-2_10680] | L
KYYGNGVTCGKHSCSVNWGQAFSCSVTHIANFGHGKC* [Pep-2_6142] | L
KYYGNGVTCGKHSCSVNWGQAFSCSVTHLANFGHAKC* [Pep-2_6179] | E
KYYGNGVTCGKHSCSVNWGQAFSCSVTHLANFGHGKC* [Pep-1_57] | L and E
KYYGNGVTCGKHSCSVNWGQAFSCSVTHLANFGHGRC* [Pep-2_6181] | E
KYYGNGVTCGKHSCSVNWGQAFSCSVTHLANFGLGKC* [Pep-2_6172] | E
KYYGNGVTCGKHSCSVNWGQAFSCSVTHLASFGHGKC* [Pep-2_6153] | L

Substance | activity group by size of inhibition zone compared to wild-type Pln-423
KYYGNGVTCGKHSCSVNWGQAFSCSVTILANFGHGKC* [Pep-2_6136] | L
KYYGNGVTCGKHSCSVNWGQAFSCSVVHIANFGHGKC* [Pep-2_6250] | H
KYYGNGVTCGKHSCSVNWGQAFSCSVVHLANFGHGKC* [Pep-1_58] | L and E
KYYGNGVTCGKHSCSVNWGQAFSCSVVHLVNFGHGKC* [Pep-2_6256] | L
KYYGNGVTCGKHSCSVNWGQAFSCSWSHLANYGHGKC* [Pep-2_5835] | L
KYYGNGVTCGKHSCSVNWGQAFSCTVEHLANFGHGKC* [Pep-2_6015] | E and H
KYYGNGVTCGKHSCSVNWGQAFSCTVSHLANFGHGKC* [GROUP L-UM-28] | L
KYYGNGVTCGKHSCSVNWGQAFSCTVSNLANFGHGKC* [Pep-2_6771] | L and E and H
KYYGNGVTCGKHSCSVNWGQAFSCVVRHLANFGHGKC* [Pep-2_4939] | L
KYYGNGVTCGKHSCSVNWGQAFSCVVSHIANFGHGKC* [Pep-2_4954] | L
KYYGNGVTCGKHSCSVNWGQAFSCVVSHLANFGHGKC* [Pep-1_46] | L
KYYGNGVTCGKHSCSVNWGQAFSCVVSHLANFGHGTC* [Pep-2_4995] | L
KYYGNGVTCGKHSCSVNWGQAFSCVWSHLANFGHGKC* [Pep-2_4938] | L
KYYGNGVTCGKHSCSVNWGQAFSCWVSHLANFGHGKC* [GROUP L-UM-15] | L
KYYGNGVTCGKHSCSVNWGQAFSCYASHLANFGHGKC* [Pep-2_5691] | L
KYYGNGVTCGKHSCSVNWGQAFSCYMSHLANFGHGAC* [GROUP L-UM-9] | L
KYYGNGVTCGKHSCSVNWGQAFVCSNSHLANFGHGKC* [Pep-2_3639] | L
KYYGNGVTCGKHSCSVNWGQAFVCSVDHLANFGHGKC* [Pep-2_3644] | E
KYYGNGVTCGKHSCSVNWGQAFVCSVRHLANFGHGKC* [Pep-2_3643] | L
